Results from patent US10464911B2, “1,3,4-oxadiazole sulfamide derivative compounds as histone deacetylase 6 inhibitor, and the pharmaceutical composition comprising the same” (Chong Kun Dang Pharmaceutical Corp., priority 2015, dated 2019).
Structures can show the parent of a compound that is named as a salt.

Biological target: human recombinant HDAC6 (Homo sapiens (Human), UniProt Q9UBN7)
Assay: HDAC6 enzyme activity inhibition assay (HDAC Fluorimetric Drug Discovery Kit)
Type: biochemical
Conditions: for HDAC6 selectivity (fold): HDAC6 versus HDAC1; for IC50: human recombinant HDAC6, same protocol as HDAC1 test
Experimental: In order to examine the HDAC6 selectivity of the compounds of formula I of the present invention by HDAC1 and HDAC6 enzymatic activity inhibition assays, an experiment was performed using a conventional substance as a control.
HDAC enzyme activity was measured using a HDAC Fluorimetric Drug Discovery Kit (BML-AK511, 516, Enzo Life Science). For the HDAC1 enzyme activity test, human recombinant HDAC1 (BML-SE456) was used as an enzyme source, and Fluor de Lys®-“SIRT1 (BNL-KI177) was used as a substrate. A 5-fold dilution of the compound was seeded into a 96-well plate, and then 0.3 μg of the enzyme and 10 μM of the substrate were added to each well of the plate and allowed to react at 30 for 60 minutes. Then, Fluor de Lys®-Developer II (BML-KI176) was added thereto and allowed to react for 30 minutes, after which the fluorescence value (Ex 360, Em 460) was measured using a multi-plate reader (Flexstation 3, Molecular Device). The HDAC6 enzyme was tested using human recombinant HDAC6 (382180) (Calbiochem) according to the same protocol as the HDAC1 enzyme activity test method. Based on the resulting values, each IC50 value was calculated using GraphPad Prism4.0 program.

human recombinant HDAC6, sequence (Q9UBN7 whole entry): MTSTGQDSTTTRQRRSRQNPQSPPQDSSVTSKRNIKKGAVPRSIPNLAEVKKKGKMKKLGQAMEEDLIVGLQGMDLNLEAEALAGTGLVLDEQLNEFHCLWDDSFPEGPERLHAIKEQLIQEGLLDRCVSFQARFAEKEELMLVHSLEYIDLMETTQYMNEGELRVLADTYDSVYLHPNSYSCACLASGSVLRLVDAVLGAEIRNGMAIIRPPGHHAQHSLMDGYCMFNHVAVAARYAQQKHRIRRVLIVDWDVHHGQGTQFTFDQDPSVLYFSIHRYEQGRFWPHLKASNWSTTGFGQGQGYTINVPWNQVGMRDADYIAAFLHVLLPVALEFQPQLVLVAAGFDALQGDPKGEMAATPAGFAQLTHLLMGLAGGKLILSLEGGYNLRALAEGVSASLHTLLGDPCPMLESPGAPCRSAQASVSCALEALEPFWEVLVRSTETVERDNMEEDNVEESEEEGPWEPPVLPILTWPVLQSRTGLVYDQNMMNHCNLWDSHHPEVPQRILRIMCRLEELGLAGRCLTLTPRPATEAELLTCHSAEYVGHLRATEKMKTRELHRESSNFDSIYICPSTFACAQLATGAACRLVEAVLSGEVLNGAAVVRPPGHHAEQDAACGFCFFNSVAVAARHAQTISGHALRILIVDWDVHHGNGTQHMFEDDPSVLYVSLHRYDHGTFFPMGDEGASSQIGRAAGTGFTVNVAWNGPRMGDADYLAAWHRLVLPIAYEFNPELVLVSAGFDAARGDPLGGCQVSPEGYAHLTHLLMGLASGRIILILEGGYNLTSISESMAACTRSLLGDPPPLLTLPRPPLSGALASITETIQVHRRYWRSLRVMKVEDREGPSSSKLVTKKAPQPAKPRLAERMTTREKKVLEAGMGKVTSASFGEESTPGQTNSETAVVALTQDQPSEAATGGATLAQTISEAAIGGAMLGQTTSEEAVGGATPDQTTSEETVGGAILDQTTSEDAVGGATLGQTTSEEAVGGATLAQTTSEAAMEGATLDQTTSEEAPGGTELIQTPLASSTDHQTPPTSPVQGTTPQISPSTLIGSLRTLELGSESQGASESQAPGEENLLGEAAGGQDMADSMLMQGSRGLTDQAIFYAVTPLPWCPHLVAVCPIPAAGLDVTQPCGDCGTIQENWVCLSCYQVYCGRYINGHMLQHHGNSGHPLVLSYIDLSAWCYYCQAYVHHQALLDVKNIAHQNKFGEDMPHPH

SMILES | HDAC6 selectivity (fold) | IC50
O=S(=O)(N1CCOCC1)N(Cc1ccc(-c2nnc(C(F)(F)F)o2)cc1)c1ccc(F)cc1 [Compound 11198, N-(4-fluorophenyl)-N-(4-(5-(trifluoromethyl)-1,3,4-oxadiazol-2-yl)benzyl)morpholine-4-sulfonamide] | 738 fold | 136 nM
O=S(=O)(N1CCOCC1)N(Cc1ccc(-c2nnc(C(F)F)o2)cc1)c1ccc(F)cc1 [Compound 11199, N-(4-(5-(difluoromethyl)-1,3,4-oxadiazol-2-yl)benzyl)-N-(4-fluorophenyl)morpholine-4-sulfonamide] | 1911 fold | 52 nM
CS(=O)(=O)N1CCN(S(=O)(=O)N(Cc2ccc(-c3nnc(C(F)(F)F)o3)cc2F)c2ccccc2)CC1 [Compound 11297, N-(2-fluoro-4-(5-(trifluoromethyl)-1,3,4-oxadiazol-2-yl)benzyl)-4-(methylsulfonyl)-N-phenylpiperazine-1-sulfonamide] | 805 fold | 124 nM
CN1CCN(S(=O)(=O)N(Cc2ccc(-c3nnc(C(F)(F)F)o3)cc2F)c2ccccc2)CC1 [Compound 11298, N-(2-fluoro-4-(5-(trifluoromethyl)-1,3,4-oxadiazol-2-yl)benzyl)-4-methyl-N-phenylpiperazine-1-sulfonamide] | 1333 fold | 75 nM
CCN1CCN(S(=O)(=O)N(Cc2ccc(-c3nnc(C(F)(F)F)o3)cc2F)c2ccccc2)CC1 [Compound 11299, 4-ethyl-N-(2-fluoro-4-(5-(trifluoromethyl)-1,3,4-oxadiazol-2-yl)benzyl)-N-phenylpiperazine-1-sulfonamide] | 1169 fold | 86 nM
CS(=O)(=O)N1CCN(S(=O)(=O)N(Cc2ccc(-c3nnc(C(F)(F)F)o3)cc2F)c2cccc(F)c2)CC1 [Compound 11310, N-(2-fluoro-4-(5-(trifluoromethyl)-1,3,4-oxadiazol-2-yl)benzyl)-N-(3-fluorophenyl)-4-(methylsulfonyl)piperazine-1-sulfonamide] | 1311 fold | 76 nM
CC(=O)N1CCN(S(=O)(=O)N(Cc2ccc(-c3nnc(C(F)(F)F)o3)cc2F)c2cccc(F)c2)CC1 [Compound 11311, 4-acetyl-N-(2-fluoro-4-(5-(trifluoromethyl)-1,3,4-oxadiazol-2-yl)benzyl)-N-(3-fluorophenyl)piperazine-1-sulfonamide] | 1188 fold | 84 nM
CN1CCN(S(=O)(=O)N(Cc2ccc(-c3nnc(C(F)(F)F)o3)cc2F)c2cccc(F)c2)CC1 [Compound 11312, N-(2-fluoro-4-(5-(trifluoromethyl)-1,3,4-oxadiazol-2-yl)benzyl)-N-(3-fluorophenyl)-4-methylpiperazine-1-sulfonamide] | 1371 fold | 73 nM
Cl.O=S(=O)(N1CCNCC1)N(Cc1ccc(-c2nnc(C(F)F)o2)cc1F)c1cccc(F)c1 [Compound 11313, N-(4-(5-(difluoromethyl)-1,3,4-oxadiazol-2-yl)-2-fluorobenzyl)-N-(3-fluorophenyl)piperazine-1-sulfonamide Hydrochloride] | 4246 fold | 24 nM
CS(=O)(=O)N1CCN(S(=O)(=O)N(Cc2ccc(-c3nnc(C(F)F)o3)cc2F)c2cccc(F)c2)CC1 [Compound 11314, N-(4-(5-(difluoromethyl)-1,3,4-oxadiazol-2-yl)-2-fluorobenzyl)-N-(3-fluorophenyl)-4-(methylsulfonyl)piperazine-1-sulfonamide] | 3061 fold | 33 nM
CN1CCN(S(=O)(=O)N(Cc2ccc(-c3nnc(C(F)F)o3)cc2F)c2cccc(F)c2)CC1 [Compound 11316, N-(4-(5-(difluoromethyl)-1,3,4-oxadiazol-2-yl)-2-fluorobenzyl)-N-(3-fluorophenyl)-4-methylpiperazine-1-sulfonamide] | 4031 fold | 25 nM
O=S(=O)(N1CCNCC1)N(Cc1ccc(-c2nnc(C(F)F)o2)cc1F)c1cccnc1 [Compound 11317, N-(4-(5-(difluoromethyl)-1,3,4-oxadiazol-2-yl)-2-fluorobenzyl)-N-(pyridin-3-yl)piperazine-1-sulfonamide Dihydrochloride] | 1234 fold | 81 nM

The remaining lines, values ahead:

HDAC6 selectivity (fold) | IC50 | SMILES
1411 fold | 71 nM | CC(=O)N1CCN(S(=O)(=O)N(Cc2ccc(-c3nnc(C(F)(F)F)o3)cc2F)c2ccccc2)CC1 [Compound 11294, 4-acetyl-N-(2-fluoro-4-(5-(trifluoromethyl)-1,3,4-oxadiazol-2-yl)benzyl)-N-phenylpiperazine-1-sulfonamide]
751 fold | 133 nM | CCC(=O)N1CCN(S(=O)(=O)N(Cc2ccc(-c3nnc(C(F)(F)F)o3)cc2F)c2ccccc2)CC1 [Compound 11295, N-(2-fluoro-4-(5-(trifluoromethyl)-1,3,4-oxadiazol-2-yl)benzyl)-N-phenyl-4-propionylpiperazine-1-sulfonamide]
636 fold | 157 nM | CC(C)C(=O)N1CCN(S(=O)(=O)N(Cc2ccc(-c3nnc(C(F)(F)F)o3)cc2F)c2ccccc2)CC1 [Compound 11296, N-(2-fluoro-4-(5-(trifluoromethyl)-1,3,4-oxadiazol-2-yl)benzyl)-4-isobutyryl-N-phenylpiperazine-1-sulfonamide]
861 fold | 116 nM | CC(C)N1CCN(S(=O)(=O)N(Cc2ccc(-c3nnc(C(F)(F)F)o3)cc2F)c2ccccc2)CC1 [Compound 11300, N-(2-fluoro-4-(5-(trifluoromethyl)-1,3,4-oxadiazol-2-yl)benzyl)-4-isopropyl-N-phenylpiperazine-1-sulfonamide]
3622 fold | 28 nM | Cl.O=S(=O)(N1CCNCC1)N(Cc1ccc(-c2nnc(C(F)F)o2)cc1F)c1ccccc1 [Compound 11301, N-(4-(5-(difluoromethyl)-1,3,4-oxadiazol-2-yl)-2-fluorobenzyl)-N-phenylpiperazine-1-sulfonamide Hydrochloride]
3174 fold | 32 nM | CC(=O)N1CCN(S(=O)(=O)N(Cc2ccc(-c3nnc(C(F)F)o3)cc2F)c2ccccc2)CC1 [Compound 11302, 4-acetyl-N-(4-(5-(difluoromethyl)-1,3,4-oxadiazol-2-yl)-2-fluorobenzyl)-N-phenylpiperazine-1-sulfonamide]
3187 fold | 31 nM | CCC(=O)N1CCN(S(=O)(=O)N(Cc2ccc(-c3nnc(C(F)F)o3)cc2F)c2ccccc2)CC1 [Compound 11303, N-(4-(5-(difluoromethyl)-1,3,4-oxadiazol-2-yl)-2-fluorobenzyl)-N-phenyl-4-propionylpiperazine-1-sulfonamide]
1912 fold | 52 nM | CC(C)C(=O)N1CCN(S(=O)(=O)N(Cc2ccc(-c3nnc(C(F)F)o3)cc2F)c2ccccc2)CC1 [Compound 11304, N-(4-(5-(difluoromethyl)-1,3,4-oxadiazol-2-yl)-2-fluorobenzyl)-4-isobutyryl-N-phenylpiperazine-1-sulfonamide]
2620 fold | 38 nM | CS(=O)(=O)N1CCN(S(=O)(=O)N(Cc2ccc(-c3nnc(C(F)F)o3)cc2F)c2ccccc2)CC1 [Compound 11305, N-(4-(5-(difluoromethyl)-1,3,4-oxadiazol-2-yl)-2-fluorobenzyl)-4-(methylsulfonyl)-N-phenylpiperazine-1-sulfonamide]
4363 fold | 23 nM | CN1CCN(S(=O)(=O)N(Cc2ccc(-c3nnc(C(F)F)o3)cc2F)c2ccccc2)CC1 [Compound 11306, N-(4-(5-(difluoromethyl)-1,3,4-oxadiazol-2-yl)-2-fluorobenzyl)-4-methyl-N-phenylpiperazine-1-sulfonamide]
2366 fold | 42 nM | CCN1CCN(S(=O)(=O)N(Cc2ccc(-c3nnc(C(F)F)o3)cc2F)c2ccccc2)CC1 [Compound 11307, N-(4-(5-(difluoromethyl)-1,3,4-oxadiazol-2-yl)-2-fluorobenzyl)-4-ethyl-N-phenylpiperazine-1-sulfonamide]
2168 fold | 46 nM | CC(C)N1CCN(S(=O)(=O)N(Cc2ccc(-c3nnc(C(F)F)o3)cc2F)c2ccccc2)CC1 [Compound 11308, N-(4-(5-(difluoromethyl)-1,3,4-oxadiazol-2-yl)-2-fluorobenzyl)-4-isopropyl-N-phenylpiperazine-1-sulfonamide]
3367 fold | 30 nM | CC(=O)N1CCN(S(=O)(=O)N(Cc2ccc(-c3nnc(C(F)F)o3)cc2F)c2cccc(F)c2)CC1 [Compound 11315, 4-acetyl-N-(4-(5-(difluoromethyl)-1,3,4-oxadiazol-2-yl)-2-fluorobenzyl)-N-(3-fluorophenyl)piperazine-1-sulfonamide]
2299 fold | 43 nM | CC(=O)N1CCN(S(=O)(=O)N(Cc2ccc(-c3nnc(C(F)F)o3)cc2F)c2cccnc2)CC1 [Compound 11318, 4-acetyl-N-(4-(5-(difluoromethyl)-1,3,4-oxadiazol-2-yl)-2-fluorobenzyl)-N-(pyridin-3-yl)piperazine-1-sulfonamide]
